From PubChem BioAssay (NCI)
Values joined by “and” are separate entries in the source; they are usually repeats but may differ in a detail not shown here. Equal values may be shown once.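 Step 1: Grow cells in 96-well plates. Step 2: Expose to compound for 48 hours at 5 concentrations. Step 3: Interpolate endpoints linearly; if unreached, use highest concentration. GI50 is the concentration that inhibits growth by half. TGI is the concentration that stops growth completely.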

The compounds below were run on MDA-MB-468 breast (assay: growth of human tumour cells (NCI), 48 h).

Which results are given for Cc1cc(C)c2c(N)c3cccc(C)c3nc2n1?
GI50: 1280 nM; TGI: 3370 nM

How did the GI50 turn out when Cc1ccc(-c2cc3nc(C(Cl)Cl)nc(-c4ccco4)n3n2)cc1 was run?
The GI50 was 566 nM.

And the TGI?
Its TGI is 3050 nM.

CCCCCCCCCCCCCCCCn1cc[n+](Cc2ccccc2)c1C was tested. Which GI50 did it give?
Its GI50 is 305 nM.

And the TGI?
The TGI was 840 nM.

Which GI50 does the source give for CC(=O)NC1=CC(=O)c2cc(C)cc(O)c2C1=O here?
The GI50 was 1870 nM.

And the TGI?
Its TGI is 5980 nM.

For N=C(N)c1ccc(-c2ccc(-c3ccc(F)cc3)o2)o1, which GI50 is on record?
The GI50 was 1360 nM.

What about the TGI of the same compound?
The TGI was 3000 nM.

How did the GI50 turn out when O=C(Nc1cccc(-n2ccc3c(NC(=O)c4ccccc4)nccc32)c1)c1cc(N2CCOCC2)cc(C(F)(F)F)c1 was run?
Its GI50 is 48.4 nM.

And the TGI?
The TGI was 1420 nM.

With O=C1OCC2=C1C(c1cccc(C(F)(F)F)c1)c1cc3c(cc1N2CCO)CCC3 (stereo not given) as the compound, how does the GI50 read?
The GI50 was 127 nM.

And the TGI?
The TGI was 1200 nM.

What does the source list for COc1ccc(/C=C\c2cc(OC)c(OC)c(OC)c2)cc1OCC(=O)Nc1nc2ccc(OC(F)(F)F)cc2s1?
GI50: 2300 nM; TGI: 6880 nM

How did the GI50 turn out when Oc1ccc(CN(Cc2ccc(C(F)(F)F)cc2)Cc2ccc(O)c3ncccc23)c2cccnc12 was run?
The GI50 was 23.6 nM.

What about the TGI of the same compound?
The TGI was 2230 nM.

Which results are given for Cc1ccc(F)cc1NC(=O)c1cc(Cl)ccc1Nc1ccccc1?
GI50: > 100000 nM; TGI: > 100000 nM

Which results are given for Cc1cc2nc3c4cccc(O)c4n(CCN(C)C)c3nc2cc1C?
GI50: 2560 nM; TGI: 8190 nM

How did the GI50 turn out when O=C(/C=C\c1ccc2ccccc2n1)c1cc(Cl)ccc1O was run?
Its GI50 is 5100 nM.

What about the TGI of the same compound?
Its TGI is 19700 nM.

Which results are given for Nc1nc(-c2cccc([N+](=O)[O-])c2)c(N=Nc2ccc([N+](=O)[O-])cc2Cl)s1?
GI50: 131 nM; TGI: 711 nM

What does the source list for COc1ccc(-c2csc3c2-n2cccc2C3=O)cc1O?
GI50: 397 nM; TGI: 2430 nM

How did the GI50 turn out when O=[N+]([O-])/C=C/c1ccc([N+](=O)[O-])cc1 was run?
The GI50 was 1510 nM.

What about the TGI of the same compound?
Its TGI is 3300 nM.

CCN1CCC(CC(=O)Nc2n[nH]c3nc(-c4cccs4)c(Br)cc23)CC1 was tested. Which GI50 did it give?
The GI50 was 4530 nM.

And the TGI?
Its TGI is 10800 nM.

Which GI50 does the source give for Cc1ccccc1C(C(=O)NC1CCCCC1)N(C(=O)Cn1ccnc1C)c1cccc(F)c1 (stereo not given) here?
The GI50 was over 100000 nM.

What about the TGI of the same compound?
The TGI was over 100000 nM.

Which GI50 does the source give for CC(C)CCC[C@@H](C)[C@H]1CCC2C3=CCC4C(=O)C=CC(=O)C4C3CC[C@@]21C (stereo not given in full) here?
Its GI50 is 215 nM.

And the TGI?
Its TGI is 570 nM.

With COc1ccc2[nH]cc(-c3nc(-c4c[nH]c5ccncc45)cs3)c2c1 as the compound, how does the GI50 read?
Its GI50 is 1780 nM.

And the TGI?
Its TGI is 3670 nM.

Which results are given for COc1ccc(-c2nc3sc4c(c3c(=O)[nH]2)CCCC4)c2ccccc12?
GI50: 1420 nM; TGI: 5550 nM and 8960 nM

How did the GI50 turn out when COC(=O)[C@@H]1CCCN1C(=O)[C@H]1CCCN1C(=O)[C@@H](Cc1c[nH]c2ccccc12)NC(=S)Nc1cc(C(F)(F)F)cc(C(F)(F)F)c1 was run?
The GI50 was 2150 nM.

And the TGI?
The TGI was 6940 nM.

COc1cc(-c2n/c(=C\c3c(O)[nH]c4ccccc34)cc3c2=Nc2ccccc2-3)cc(OC)c1OC was tested. Which GI50 did it give?
Its GI50 is 2570 nM.

And the TGI?
Its TGI is 7740 nM.

Which results are given for Cc1ccc(Oc2nc3ccccc3cc2-c2nnc(Cn3c(COc4ccccc4)nc4ccccc43)o2)cc1?
GI50: 3950 nM; TGI: 18300 nM

How did the GI50 turn out when N/C(=N\c1nc2ccccc2s1)NC(=O)Nc1cccc2ccccc12 was run?
The GI50 was 372 nM.

And the TGI?
Its TGI is 22700 nM.

Which GI50 does the source give for Oc1cc(Cl)ccc1Cc1ccc(Cl)cc1O here?
Its GI50 is 11700 nM.

What about the TGI of the same compound?
Its TGI is 35500 nM.

C[C@@H]1COC(Nc2ccc3ncnc(Nc4ccc(OCc5nccs5)c(Cl)c4)c3c2)=N1 was tested. Which GI50 did it give?
Its GI50 is 181 nM and 39.6 nM.

And the TGI?
Its TGI is 1590 nM and 294 nM.

What does the source list for COc1cc(OC)cc(-c2cncn2-c2ccc(-c3nc4cc(OC)cc(OC)c4s3)cc2)c1?
GI50: 3170 nM; TGI: > 100000 nM

COc1cc2ncn(-c3cc(OCc4ccccc4S(C)(=O)=O)c(C#N)s3)c2cc1OC was tested. Which GI50 did it give?
Its GI50 is over 25000 nM.

What about the TGI of the same compound?
Its TGI is over 25000 nM.

With CCCn1cnc2c(c1=N)C(c1ccc(OC)cc1)c1sc3c(C)cccc3c1O2 (stereo not given) as the compound, how does the GI50 read?
The GI50 was 360 nM.

What about the TGI of the same compound?
The TGI was 13400 nM.

For O=[N+]([O-])c1cccc(-c2cc(-c3cc(Br)ccc3O)[nH]n2)c1, which GI50 is on record?
The GI50 was 1470 nM.

What about the TGI of the same compound?
The TGI was 21100 nM.

Which GI50 does the source give for CCC(=O)c1ccc2c(c1)N(CCCN1CCN(CCO)CC1)c1ccccc1S2 here?
The GI50 was 10500 nM.

And the TGI?
Its TGI is 23500 nM.

With Cc1cc(NC(=O)NC(=O)c2ccccc2NC(=O)CN)ccc1Oc1ncc(Br)cn1 as the compound, how does the GI50 read?
Its GI50 is 65 nM.

What about the TGI of the same compound?
The TGI was 36800 nM.

How did the GI50 turn out when CNCCOC(=O)/C=C1/CCC2C(C(O)CC3C(C)(C(=O)OC)CCCC23C)C1C (stereo not given) was run?
The GI50 was 37.7 nM.

What about the TGI of the same compound?
Its TGI is 148 nM.

How did the GI50 turn out when COC1[C@@H]2C[C@H]3C(C)(C)O[C@@](C/C=C(/C)C(=O)O)(C2=O)[C@]32Oc3c(CC=C(C)C)c4c(c(O)c3C(=O)[C@H]12)C=CC(C)(C)O4 (stereo not given in full) was run?
The GI50 was 7460 nM.

What about the TGI of the same compound?
Its TGI is 25000 nM.

With Cc1ccc(C[P+](c2ccccc2)(c2ccccc2)c2ccccc2)cc1 as the compound, how does the GI50 read?
The GI50 was 172 nM.

And the TGI?
Its TGI is 1190 nM.

Which results are given for Nc1ccc(-n2c(=O)oc3ccc(Cl)cc3c2=O)c(Cl)c1?
GI50: 90.3 nM; TGI: 383 nM

Which results are given for CCCCCCN1CCN(Cc2ccc(N(CC)CC)cc2)C(=O)C1=O?
GI50: 1590 nM; TGI: 16100 nM

Which GI50 does the source give for COc1ccc(-c2cc(-c3nnc(SCC(=O)Nc4ccc(C(C)=O)cc4)o3)c3ccccc3n2)cc1 here?
The GI50 was over 100000 nM.

What about the TGI of the same compound?
The TGI was over 100000 nM.

What does the source list for COc1ccc(-c2ccccc2)cc1-c1c(Nc2cc(Cl)cc(Cl)c2O)c(=O)c1=O?
GI50: 1130 nM; TGI: 3910 nM

C=C(C)[C@@H]1CC[C@]2(C(=O)NCCNCCNCCN)CC[C@]3(C)[C@H](CC[C@@H]4[C@@]5(C)CCC(=O)C(C)(C)[C@@H]5CC[C@]43C)[C@@H]12 was tested. Which GI50 did it give?
Its GI50 is 8090 nM.

What about the TGI of the same compound?
Its TGI is 16100 nM.
